Source: ChEMBL document CHEMBL5042535, “Structure-Based Design and Synthesis of N-Substituted 3-Amino-β-Carboline Derivatives as Potent αβ-Tubulin Degradation Agents” (J Med Chem, 2022)

Experiments:
Format in all cases: functional, cell-based
[1] = tested on: HeLa; experiment: Antiproliferative activity against human HeLa cells assessed as reduction in cell viability measured after 24 hrs by MTT assay
[2] = tested on: MCF7; experiment: Antiproliferative activity against human MCF7 cells assessed as reduction in cell viability measured after 24 hrs by MTT assay; details: MCF7, 24 h
[3] = tested on: A2780S; experiment: Antiproliferative activity against human A2780S cells assessed as reduction in cell viability measured after 24 hrs by MTT assay
[4] = tested on: NCI-H460; experiment: Antiproliferative activity against human NCI-H460 cells assessed as reduction in cell viability measured after 24 hrs by MTT assay; details: NCI-H460, 24 h
[5] = tested on: Raji; experiment: Antiproliferative activity against human Raji cells assessed as reduction in cell viability measured after 24 hrs by MTT assay

| SMILES | IC50 [1] | IC50 [2] | IC50 [3] | IC50 [4] | IC50 [5] |
| --- | --- | --- | --- | --- | --- |
| Cn1cccc1CNc1cc2c(cn1)[nH]c1ccccc12 | > 500 nM | > 500 nM | > 500 nM | 500 nM | > 500 nM |
| CC(C)CCOc1cccc(CNc2cc3c(cn2)[nH]c2ccccc23)c1 | > 500 nM | > 500 nM | > 500 nM | > 500 nM | > 500 nM |
| c1cc(CNc2cc3c(cn2)[nH]c2ccccc23)cc(OC2CCC2)c1 | > 500 nM | > 500 nM | > 500 nM | > 500 nM | > 500 nM |
| N#Cc1cccc(Oc2cccc(CNc3cc4c(cn3)[nH]c3ccccc34)c2)c1 | 500 nM | > 500 nM | > 500 nM | > 500 nM | > 500 nM |

Next, values leading:

| IC50 [1] | IC50 [2] | IC50 [3] | IC50 [4] | IC50 [5] | SMILES |
| --- | --- | --- | --- | --- | --- |
| > 500 nM | > 500 nM | > 500 nM | > 500 nM | > 500 nM | CSc1ccc(Oc2cccc(CNc3cc4c(cn3)[nH]c3ccccc34)c2)cc1 |
| 45 nM | 48 nM | 73 nM | 222 nM | 74 nM | Clc1ccc(Oc2cccc(CNc3cc4c(cn3)[nH]c3ccccc34)c2)cc1 |
